# In patent US20210261642A1, “SOLUBILITY OF GLP-1 PEPTIDE” (Novo Nordisk A/S, priority 2017, published 2021):
# Test: Assay (I): Determination of Solubility (96-well plate, pH 3.0-11.0, organic solvent 0-70% w/w, UV absorption at 280 nm)
# Type: physicochemical
# Settings: Method 1
# Method: Assay (I): Determination of Solubility
# 96-Well Plate Preparation
# 96-well plates containing target peptide in a solid form were prepared in one of two ways:
# Method 1 (evaporation): Addition of 100 μl stock solution of said peptide at a concentration of 4-6 mg/ml to each well of a 96-well half area plate (150 μl well size). Subsequently the solvent was evaporated by applying a vacuum until the solvent was completely removed.
# Method 2 (precipitation): Addition of a certain volume of a stock solution of said peptide containing to each well of a 96-well half area plate followed by the addition of a certain volume of concentrated phosphoric acid to obtain a pH of 4.6 followed by addition of a certain volume of ethanol resulting in a final ethanol concentration of 20% v/v. Subsequently the plate was stored at 4° C. for 1 h and then centrifuged at 4,000 rpm for 20 min. Finally the supernatant was removed. The concentration of the stock solution was chosen in a way that the final amount of peptide after supernatant removal was >0.4 mg per well.
# In both cases the stock solution was prepared by adding de-ionized water to a certain amount of powder of said peptide followed by a stepwise addition of small amounts of a concentrated sodium hydroxide solution until said peptide was completely in solution.
# To determine solubility of a target peptide at different pH and organic solvent concentrations, two different buffer systems were used in independent experiments to cover the whole range from pH 3.0 to pH 11.0. Buffer system 1 covers pH 3.0-7.5 and buffer system 2 covers pH 7.5-11.0. For each buffer system 96 different solvent compositions were premixed in the following way: • 1. A low pH buffer (adjusted to either pH 3.0 or pH 7.5) and a high pH buffer (adjusted to either pH 7.5 or pH 11.0) were mixed at 8 different ratios to obtain values between pH 3.0 and pH 7.5 or pH 7.5 and pH 11.0, respectively. The total volume after mixing was 300 μl. • 2. 12 different amounts of organic solvent were then added to these buffers to obtain organic solvent (e.g. ethanol) concentrations between 0 and 70% w/w. • 3. Water was then added to obtain a total weight of 1.0 g of solvent in each well.
# After preparing the 96 different solvent systems, 100 μl of each system was transferred to the 96-well plate containing the solid form of the target peptide (prepared as described in the section “96-well plate preparation”). The plate was then stored at a given temperature (between 5° C. and 70° C.) for a given time on a rotating shaker set to 400 rpm. At regular time intervals the plate was centrifuged (4,000 rpm for 10 min) and a 10 μl sample was taken from each well. The samples were then analysed by UV absorption at 280 nm for peptide quantification. Peptide concentration results are given as UV absorption at 280 nm of the sample subtracted UV absorption at 280 nm of a well comprising 10 μl water.
# The buffers used were as follows: • Buffer system 1 (for the pH range from pH 3.0-7.5)
# • Buffer system 2 (for the pH ranae from pH 7.5-11.0)
# Solubility of liraglutide was determined using Assay (I) described herein. Liraglutide was prepared using Method 1 (evaporation) or Method 2 (precipitation) as described in subsection “96-well plate preparation”.
structure (smiles),measurement,setting,value
"CCCCCCCCCCCCCCCC(=O)N[C@@H](CCC(=O)NCCCC[C@H](NC(=O)[C@H](C)NC(=O)[C@H](C)NC(=O)[C@H](CCC(N)=O)NC(=O)CNC(=O)[C@H](CCC(=O)O)NC(=O)[C@H](CC(C)C)NC(=O)[C@H](Cc1ccc(O)cc1)NC(=O)[C@H](CO)NC(=O)[C@H](CO)NC(=O)[C@@H](NC(=O)[C@H](CC(=O)O)NC(=O)[C@H](CO)NC(=O)[C@@H](NC(=O)[C@H](Cc1ccccc1)NC(=O)[C@@H](NC(=O)CNC(=O)[C@H](CCC(=O)O)NC(=O)[C@H](C)NC(=O)[C@@H](N)Cc1cnc[nH]1)[C@@H](C)O)[C@@H](C)O)C(C)C)C(=O)N[C@@H](CCC(=O)O)C(=O)N[C@@H](Cc1ccccc1)C(=O)N[C@H](C(=O)N[C@@H](C)C(=O)N[C@@H](Cc1c[nH]c2ccccc12)C(=O)N[C@@H](CC(C)C)C(=O)N[C@H](C(=O)N[C@@H](CCCNC(=N)N)C(=O)NCC(=O)N[C@@H](CCCNC(=N)N)C(=O)NCC(=O)O)C(C)C)[C@@H](C)CC)C(=O)O [liraglutide, Arg34,Lys26-(N-epsilon-(gamma-L-glutamyl(N-alfa-hexadecanoyl)))-GLP-1(7-37)]",Peptide concentration after 180 min,"MeCN 50.9% w/w, pH 8.0, 5° C.",2.2 mg/mL
same,Peptide concentration after 24 h,"MeCN 50.9% w/w, pH 8.0, 5° C.",>4.0 mg/mL
same,Peptide concentration after 5 min,"MeCN 50.9% w/w, pH 8.5, 5° C.",0.6 mg/mL
same,Peptide concentration after 180 min,"MeCN 50.9% w/w, pH 8.5, 5° C.",2.6 mg/mL
same,Peptide concentration after 24 h,"MeCN 50.9% w/w, pH 8.5, 5° C.",>4.0 mg/mL
same,Peptide concentration after 5 min,"MeCN 50.9% w/w, pH 9.0, 5° C.",0.6 mg/mL
same,Peptide concentration after 180 min,"MeCN 50.9% w/w, pH 9.0, 5° C.",2.0 mg/mL
same,Peptide concentration after 24 h,"MeCN 50.9% w/w, pH 9.0, 5° C.",>4.0 mg/mL
same,Peptide concentration after 5 min,"MeCN 50.9% w/w, pH 9.5, 5° C.",1.0 mg/mL
same,Peptide concentration after 180 min,"MeCN 50.9% w/w, pH 9.5, 5° C.",2.4 mg/mL
same,Peptide concentration after 24 h,"MeCN 50.9% w/w, pH 9.5, 5° C.",>4.0 mg/mL
same,Peptide concentration after 5 min,"MeCN 50.9% w/w, pH 10.0, 5° C.",1.5 mg/mL
same,Peptide concentration after 180 min,"MeCN 50.9% w/w, pH 10.0, 5° C.",2.6 mg/mL
same,Peptide concentration after 24 h,"MeCN 50.9% w/w, pH 10.0, 5° C.",>4.0 mg/mL
same,Peptide concentration after 5 min,"MeCN 50.9% w/w, pH 10.5, 5° C.",0.9 mg/mL
same,Peptide concentration after 180 min,"MeCN 50.9% w/w, pH 10.5, 5° C.",2.1 mg/mL
same,Peptide concentration after 24 h,"MeCN 50.9% w/w, pH 10.5, 5° C.",3.8 mg/mL
same,Peptide concentration after 5 min,"MeCN 50.9% w/w, pH 11.0, 5° C.",0.7 mg/mL
same,Peptide concentration after 180 min,"MeCN 50.9% w/w, pH 11.0, 5° C.",2.2 mg/mL
same,Peptide concentration after 24 h,"MeCN 50.9% w/w, pH 11.0, 5° C.",>4.0 mg/mL
same,Peptide concentration after 5 min,"MeCN 57.3% w/w, pH 8.0, 5° C.",0.5 mg/mL
same,Peptide concentration after 180 min,"MeCN 57.3% w/w, pH 8.0, 5° C.",1.6 mg/mL
same,Peptide concentration after 24 h,"MeCN 57.3% w/w, pH 8.0, 5° C.",3.4 mg/mL
same,Peptide concentration after 5 min,"MeCN 57.3% w/w, pH 8.5, 5° C.",0.5 mg/mL
same,Peptide concentration after 180 min,"MeCN 57.3% w/w, pH 8.5, 5° C.",1.6 mg/mL
same,Peptide concentration after 24 h,"MeCN 57.3% w/w, pH 8.5, 5° C.",3.7 mg/mL
same,Peptide concentration after 5 min,"MeCN 57.3% w/w, pH 9.0, 5° C.",0.5 mg/mL
same,Peptide concentration after 180 min,"MeCN 57.3% w/w, pH 9.0, 5° C.",1.9 mg/mL
same,Peptide concentration after 24 h,"MeCN 57.3% w/w, pH 9.0, 5° C.",>4.0 mg/mL
same,Peptide concentration after 5 min,"MeCN 57.3% w/w, pH 9.5, 5° C.",1.0 mg/mL
same,Peptide concentration after 180 min,"MeCN 57.3% w/w, pH 9.5, 5° C.",2.0 mg/mL
same,Peptide concentration after 24 h,"MeCN 57.3% w/w, pH 9.5, 5° C.",4.0 mg/mL
same,Peptide concentration after 5 min,"MeCN 57.3% w/w, pH 10.0, 5° C.",1.4 mg/mL
same,Peptide concentration after 180 min,"MeCN 57.3% w/w, pH 10.0, 5° C.",1.6 mg/mL
same,Peptide concentration after 24 h,"MeCN 57.3% w/w, pH 10.0, 5° C.",1.8 mg/mL
same,Peptide concentration after 5 min,"MeCN 57.3% w/w, pH 10.5, 5° C.",1.1 mg/mL
same,Peptide concentration after 180 min,"MeCN 57.3% w/w, pH 10.5, 5° C.",1.1 mg/mL
same,Peptide concentration after 24 h,"MeCN 57.3% w/w, pH 10.5, 5° C.",1.6 mg/mL
same,Peptide concentration after 5 min,"MeCN 57.3% w/w, pH 11.0, 5° C.",0.9 mg/mL
same,Peptide concentration after 180 min,"MeCN 57.3% w/w, pH 11.0, 5° C.",1.4 mg/mL
same,Peptide concentration after 24 h,"MeCN 57.3% w/w, pH 11.0, 5° C.",2.6 mg/mL
same,Peptide concentration after 5 min,"MeCN 63.6% w/w, pH 8.0, 5° C.",0.3 mg/mL
same,Peptide concentration after 180 min,"MeCN 63.6% w/w, pH 8.0, 5° C.",0.6 mg/mL
same,Peptide concentration after 24 h,"MeCN 63.6% w/w, pH 8.0, 5° C.",2.0 mg/mL
same,Peptide concentration after 5 min,"MeCN 63.6% w/w, pH 8.5, 5° C.",0.6 mg/mL
same,Peptide concentration after 180 min,"MeCN 63.6% w/w, pH 8.5, 5° C.",0.8 mg/mL
same,Peptide concentration after 24 h,"MeCN 63.6% w/w, pH 8.5, 5° C.",2.1 mg/mL
same,Peptide concentration after 5 min,"MeCN 63.6% w/w, pH 9.0, 5° C.",1.4 mg/mL
same,Peptide concentration after 180 min,"MeCN 63.6% w/w, pH 9.0, 5° C.",0.9 mg/mL
same,Peptide concentration after 24 h,"MeCN 63.6% w/w, pH 9.0, 5° C.",2.6 mg/mL
same,Peptide concentration after 5 min,"MeCN 63.6% w/w, pH 9.5, 5° C.",0.2 mg/mL
